In general, inhibition refers to how much of the control response was suppressed. What is called Ki is the dissociation constant of the complex between target and ligand, obtained from inhibition or displacement.

Data on 13 molecules can be found in patent publication EP2776398B1, “SUBSTITUTED PYRAZOLYL-BASED UREA DERIVATIVES AS VANILLOID RECEPTOR LIGANDS” (Medifron DBT Inc., priority 2011, dated 2013).

Structures are written as SMILES.

In one assay the target is T1, vanilloid receptor 1 (VR1/TRPV1 receptor) (Homo sapiens, UniProt Q8NER1).
T1 construct: expressed in transfected cells; host or cells: CHO K1 cells (ECACC), stably transfected
T1 sequence (Q8NER1 whole entry): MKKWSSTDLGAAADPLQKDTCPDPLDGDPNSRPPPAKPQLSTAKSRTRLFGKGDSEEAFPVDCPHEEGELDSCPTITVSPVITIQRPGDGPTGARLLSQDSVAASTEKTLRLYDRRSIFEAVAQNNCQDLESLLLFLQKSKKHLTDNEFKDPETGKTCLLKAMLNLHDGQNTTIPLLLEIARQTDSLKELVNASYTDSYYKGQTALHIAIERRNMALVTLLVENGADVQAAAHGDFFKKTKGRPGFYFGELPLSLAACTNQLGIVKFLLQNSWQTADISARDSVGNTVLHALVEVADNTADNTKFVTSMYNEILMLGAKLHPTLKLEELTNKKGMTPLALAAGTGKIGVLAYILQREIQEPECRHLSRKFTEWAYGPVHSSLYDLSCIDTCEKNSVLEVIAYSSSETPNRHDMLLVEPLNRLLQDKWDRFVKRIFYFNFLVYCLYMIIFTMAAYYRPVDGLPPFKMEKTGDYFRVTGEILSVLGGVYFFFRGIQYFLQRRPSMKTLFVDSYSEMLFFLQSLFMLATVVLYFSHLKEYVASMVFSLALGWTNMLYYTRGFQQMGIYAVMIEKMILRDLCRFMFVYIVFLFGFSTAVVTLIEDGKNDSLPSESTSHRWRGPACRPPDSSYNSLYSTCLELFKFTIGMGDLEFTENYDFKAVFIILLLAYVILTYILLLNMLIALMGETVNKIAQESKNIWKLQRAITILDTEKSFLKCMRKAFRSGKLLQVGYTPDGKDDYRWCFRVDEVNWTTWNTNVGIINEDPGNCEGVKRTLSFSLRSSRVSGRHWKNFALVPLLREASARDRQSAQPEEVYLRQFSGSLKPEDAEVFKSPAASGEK
Description: Functional testing on vanilloid receptor 1: FLIPR Ca2+ influx assay against capsaicin (Cap) in transfected CHO K1 cells (pharmacological method II). On Ki: 100 nM capsaicin. Format: cell-based. The arrangement: key to (f) Ki (human being) [nM] Cap: agonist classification: AG = agonist. The settings on record: @ 5µM; human VR1 in CHO K1 cells; capsaicin; relative to maximum inhibition with 10 µM capsazepine; read-out: inhibition (as a percentage), printed in column (f) Ki (human being) [nM] Cap.
Source text: […]
On to `CC(C)(C)c1cc(CNC(=O)Nc2ccc(C(C)(CO)CO)cc2)n(-c2cccc(Cl)c2)n1` [A157, 1-[[5-tert-Butyl-2-(3-chlorophenyl)-2H-pyrazol-3-yl]-methyl]-3-[4-[2-hydroxy-1-(hydroxymethyl)-1-methyl-ethyl]-phenyl]-urea], for which the inhibition at 5 µM came out at 35%.

The assay is the same for the next values; noted with them: human VR1 in CHO K1 cells; AG printed instead of a Ki.
With `CC(C(=O)NCc1cc(C(C)(C)C)nn1-c1cccc(F)c1)c1ccc(CO)c(F)c1` (stereo not shown) [A37, N-[[5-tert-Butyl-2-(3-fluorophenyl)-2H-pyrazol-3-yl]-methyl]-2-[3-fluoro-4-(hydroxymethyl)-phenyl]-propionamide], the “(f) Ki (human being) [nM] Cap: agonist classification” value is on record as “AG”.

The same assay, now with this note: read-out: (f) Ki (human being) [nM] Cap.
Regarding `O=C(NCc1cc(C(F)(F)F)nn1-c1ccccc1F)Nc1ccc(CO)c(F)c1` [A61, 1-[3-Fluoro-4-(hydroxymethyl)-phenyl]-3-[[2-(2-fluorophenyl)-5-(trifluoromethyl)-2H-pyrazol-3-yl]-methyl]-urea], the inhibition constant (Ki) is 26 nM.

As to `O=C(NCc1cc(C(F)(F)F)nn1-c1cccc(Cl)c1)Nc1ccc(OCCO)c(F)c1` [A20, 1-[[2-(3-Chlorophenyl)-5-(trifluoromethyl)-2H-pyrazol-3-yl]-methyl]-3-[3-fluoro-4-(2-hydroxy-ethoxy)-phenyl]-urea], the Ki turned out to be 37 nM.

Regarding `O=C(NCc1cc(C(F)(F)F)nn1-c1ccc(F)c(F)c1)Nc1ccc(CO)c(F)c1` [A64, 1-[[2-(3,4-Difluoro-phenyl)-5-(trifluoromethyl)-2H-pyrazol-3-yl]-methyl]-3-[3-fluoro-4-(hydroxymethyl)-phenyl]-urea], the Ki was 26 nM.

As for `CC(CO)(CO)c1ccc(NC(=O)NCc2cc(C(F)(F)F)nn2-c2cccc(Cl)c2)cc1F` [A154, 1-[[2-(3-Chlorophenyl)-5-(trifluoromethyl)-2H-pyrazol-3-yl]-methyl]-3-[3-fluoro-4-[2-hydroxy-1-(hydroxymethyl)-1-methyl-ethyl]-phenyl]-urea], the Ki came out at 117 nM.

As for `O=C(Cc1ccc(CO)c(F)c1)NCc1cc(C(F)(F)F)nn1-c1cccc(Cl)c1` [A30, N-[[2-(3-Chlorophenyl)-5-(trifluoromethyl)-2H-pyrazol-3-yl]-methyl]-2-[3-fluoro-4-(hydroxymethyl)-phenyl]-acetamide], the Ki came to 21 nM.

As to `Cc1cc(-n2nc(C(F)(F)F)cc2CNC(=O)Nc2ccc(CO)c(F)c2)ccc1Cl` [A78, 1-[[2-(4-Chloro-3-methyl-phenyl)-5-(trifluoromethyl)-2H-pyrazol-3-yl]-methyl]-3-[3-fluoro-4-(hydroxymethyl)-phenyl]-urea], the Ki stood at 11 nM.

For `O=C(NCc1cc(C(F)(F)F)nn1-c1ccc(F)c(Cl)c1)Nc1ccc(OCCO)c(F)c1` [A22, 1-[[2-(3-Chloro-4-fluoro-phenyl)-5-(trifluoromethyl)-2H-pyrazol-3-yl]-methyl]-3-[3-fluoro-4-(2-hydroxy-ethoxy)-phenyl]-urea], the Ki was determined as 40 nM.

With `CC(C(=O)NCc1cc(C(F)(F)F)nn1-c1cccc(Cl)c1)c1ccc(C(O)CO)c(F)c1` (stereo not shown) [A148, N-[[2-(3-Chlorophenyl)-5-(trifluoromethyl)-2H-pyrazol-3-yl]-methyl]-2-[4-(1,2-dihydroxy-ethyl)-3-fluoro-phenyl]-propionamide], the Ki is 4 nM.

Turning to `CC(C(=O)NCc1cc(C(F)(F)F)nn1-c1cccc(F)c1)c1ccc(C2(O)CC2)c(F)c1` (stereo not shown) [A102, 2-[3-Fluoro-4-(1-hydroxy-cyclopropyl)-phenyl]-N-[[2-(3-fluorophenyl)-5-(trifluoromethyl)-2H-pyrazol-3-yl]-methyl]-propionamide], the Ki was found to be 15 nM.

As for `O=C(NCc1cc(C(F)(F)F)nn1-c1ccc(F)cc1)Nc1ccc(CO)c(F)c1` [A63, 1-[3-Fluoro-4-(hydroxymethyl)-phenyl]-3-[[2-(4-fluorophenyl)-5-(trifluoromethyl)-2H-pyrazol-3-yl]-methyl]-urea], the Ki stood at 9 nM.

For `COc1cccc(-n2nc(C(F)(F)F)cc2CNC(=O)C(C)c2ccc(C3(O)CC3)c(F)c2)c1` (stereo not shown) [A103, 2-[3-Fluoro-4-(1-hydroxy-cyclopropyl)-phenyl]-N-[[2-(3-methoxyphenyl)-5-(trifluoromethyl)-2H-pyrazol-3-yl]-methyl]-propionamide], the Ki is 22 nM.
